The record followed here is patent US12194084B2 (priority 2019, dated 2025).

In assay [1] the test system is DN1 T cells. In kind it is cell-based, mouse. As to conditions: screen of 6 common adjuvants, CD69 on DN1 T cells. As for the experimental part: 24 h later, the percentage of DN1 T cells expressing CD69 was determined by FACS. Data are representative of two experiments.
For assay [2], the system named is lymphocytes from MLN of Mtb-infected mice. As to the kind of experiment: Recall response to Mtb lipids in Mtb-infected hCD1Tg mice (IFN-γ ELISPOT). In kind it is cell-based.

With monophosphoryl lipid A [MPLA], in assay [1], the “enhancement of a suboptimal dose of MA-MC” value is reported as “top three candidates”.

For the substance cyclic-di-GMP, in assay [1], the “enhancement of a suboptimal dose of MA-MC” value is “top three candidates”.

As for Glucose monomycolate [GMM], in assay [2], the “T cell responses to Mtb lipid” value is reported as “readily detected”.

As to Sulfoglycolipid [SGL], the “T cell responses to Mtb lipid” value in assay [2] is “readily detected”.
